According to PMC4745082, “A Novel PET Imaging Probe for the Detection and Monitoring of Translocator Protein 18 kDa Expression in Pathological Disorders” (Scientific Reports, 2016):
“Also recorded” adds a separate entry of the source.

What was measured:
TSPO = TSPO (Rattus norvegicus, UniProt P16257); experiment: microPET in LPS-induced neuroinflammation rat model; format: in vivo; set-up: from tissue; host or cells: Living rat brain (ipsilateral and contralateral striatum), LPS-injected Sprague-Dawley rats
Sequence of TSPO (P16257 whole entry): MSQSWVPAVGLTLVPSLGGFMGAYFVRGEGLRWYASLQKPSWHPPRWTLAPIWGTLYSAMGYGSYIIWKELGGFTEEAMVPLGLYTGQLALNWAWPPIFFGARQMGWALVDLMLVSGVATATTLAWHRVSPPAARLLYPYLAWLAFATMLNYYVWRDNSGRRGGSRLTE
Description: Male Sprague-Dawley rats weighing 200–250 g were used for the brain inflammation model and neuroinflammation was induced using lipopolysaccharide (LPS; Sigma-Aldrich, St. Louis, MO, U.S.A.) as previously described. In all rats used for sequential PET scans, microglia activation between the ipsilateral and contralateral areas was determined by CD68 immunohistochemical staining.
Five LPS-induced neuroinflammation rats (219.2 ± 14.1 g) were used for brain PET imaging at 4 days post-LPS injection. Before the scan, the rats were anesthetized with 2% isoflurane in a 7:3 mixture of N2/O2. PET imaging of the rat brain was performed in a dedicated small animal PET/CT (NanoPET/CT, Bioscan, Inc., U.S.A.) with a 10-cm axial field-of-view (FOV) and a 12-cm transaxial FOV. […] To determine the TSPO selectivity and TSPO specificity of the PET images, flumazenil (5 mg/kg intravenously) was administered at 15 min post [^18F]CB251 injection via jugular catheter. Subsequently, PBR28 (5 mg/kg intravenously) was injected 30 min later via jugular catheter in the same LPS-induced neuroinflammation rat model. Three human glioblastoma U87-MG-bearing mice were used for TSPO-rich cancer PET imaging. PET scans of the mice, anesthetized with 2% isoflurane, were performed with a 9.3-cm axial, 8.4-cm trans-axial FOV scanner. At the end of each study, the list-mode data were sorted into a dynamic scan consisting of 54 frames for 90 min. The acquired images were reconstructed by the 3-D Adjoints Monte Carlo method, which included scatter and random corrections. A region of interest (ROI) with a 2-mm radius was delineated in the ipsilateral lesioned striatum by the intensely visualized region in the summed image of all the frames. Regional uptake of radioactivity was decay-corrected to the injection time and was expressed as the standardized uptake value (SUV), which was normalized to the injected radioactivity and animal body weight. Analysis of the PET images was performed using PMOD software v.3.1 (PMOD Technologies Ltd., Zurich, Switzerland). The time activity curve (TAC) representing the variation in radioligand concentration according to the time-course was estimated for the ipsilateral striatum.

[1] = test system: human glioblastoma U87-MG xenografts; set-up: species or system mice; settings: mouse, in vivo
Description: Another in vivo test of [^18F]CB251 was performed in U87-MG-bearing mice using a microPET scanner (Fig. 6). Tumour cells were engrafted on the left thigh of Balb/c nude mice. [^18F]CB251 was administered intravenously after the tumour volume reached approximately 364.5 ± 32.2 mm^3 and a dynamic PET scan was performed. […] In particular, [^18F]CB251 provided a tumour accumulation (1.96 ± 0.11%ID/g at 1 h post injection) and a visible image of the tumour in summed PET images.
U87-MG cells (ATCC) were cultured in Dulbecco’s modified Eagle’s medium supplemented with 4 mM L-glutamine, 4,500 mg/L glucose, 1 mM sodium pyruvate, […] sodium bicarbonate, 10% FBS and antibiotic-antimycotic (Gibco, Grand Island, NY, USA) at 37 °C in a humidified atmosphere of 5% CO2. U87-MG cells were cultured for 2–3 days without changing the medium and were harvested with trypsin-EDTA in PBS. Male Balb/c nu/nu mice, obtained at 6–7 weeks of age (Orient Bio Inc., Seongnam, Korea), were subcutaneously injected in the right shoulder with 5 × 10^6 U87-MG cells suspended in 100 μL of 100 mM PBS (pH 7.4). Animal protocols were approved by the Seoul National University Bundang Hospital Animal Care and Use Committee and the methods were carried out in accordance with the approved guidelines. We also performed calliper measurements of the longest perpendicular tumour diameters.
Five LPS-induced neuroinflammation rats (219.2 ± 14.1 g) were used for brain PET imaging at 4 days post-LPS injection. Before the scan, the rats were anesthetized with 2% isoflurane in a 7:3 mixture of N2/O2. PET imaging of the rat brain was performed in a dedicated small animal PET/CT (NanoPET/CT, Bioscan, Inc., U.S.A.) with a 10-cm axial field-of-view (FOV) and a 12-cm transaxial FOV. […] Regional uptake of radioactivity was decay-corrected to the injection time and was expressed as the standardized uptake value (SUV), which was normalized to the injected radioactivity and animal body weight. […]

CCCN(CCC)C(=O)Cc1c(-c2ccc(OCC[18F])cc2)nc2c(Cl)cc(Cl)cn12 [[^18F]CB251, 2-(2-(4-(2-[^18F]fluoroethoxy)phenyl)-6,8-dichloroimidazo[1,2-a]pyridin-3-yl)-N,N-dipropylacetamide]
uptake ratio between the ipsilateral area and the contralateral area (TSPO; 30 min post injection): 2.35 times
uptake of [18F]CB251 in the ipsilateral area after PBR28 injection (TSPO; displacement, PBR28 5 mg/kg intravenously 30 min after flumazenil): decreased significantly; also recorded: significantly decreased
uptake of [18F]CB251 in the ipsilateral region after flumazenil (TSPO; displacement, flumazenil 5 mg/kg intravenously at 15 min post injection): did not prevent the uptake
binding potential of the specifically bound radioligand relative to the non-displaceable radioligand in tissue (BPND) (TSPO; ipsilateral striatum, contralateral striatum as reference, Logan plot with reference tissue input): 1.83 ± 0.18
uptake in the skull (TSPO; summed microPET images): no significant uptake
tumour uptake ([1]; male, Balb/c nu/nu, 1 h): 1.96 ± 0.11 %ID/g
bladder and muscle uptake [1]: low
kidney uptake [1]: high
